These results are taken from US20240050580A1, “COMPOSITIONS TARGETING TUMOR ASSOCIATED MACROPHAGES AND METHODS USING SAME” (Rutgers, The State University of New Jersey, priority 2020, published 2024).

In one test the test system is EF43.fgf4 cells. The test can be described thus: Phage/peptide binding to cultured EF43.fgf4 cells (BRASIL cell binding assay). It is filed as cell-based, mouse. The note with it: standard cell binding assay, phage-displayed peptide. The procedure: (§1) The Biopanning and Rapid Analysis of Selective Interactive Ligands (BRASIL) methodology was used to test binding of phage to cultured cells. For phage binding to the candidate receptors PDIA3 and DBP, individual microtiter wells of 96-well plates were coated overnight (ON) with 1 μg/ml of recombinant proteins, followed by blocking with BSA and incubation with 10^9 TU of insertless phage or […]-phage for 1 hour at room temperature (RT). GST and BSA were used as control proteins. Bound phage were recovered by log-phase infection of host bacteria (200 μl E. coli K91Kan).

In a further test the target is T1, DBP (Homo sapiens, UniProt P02774).
T1 construct: GST; purchased Abcam
T1 sequence (P02774 17-474): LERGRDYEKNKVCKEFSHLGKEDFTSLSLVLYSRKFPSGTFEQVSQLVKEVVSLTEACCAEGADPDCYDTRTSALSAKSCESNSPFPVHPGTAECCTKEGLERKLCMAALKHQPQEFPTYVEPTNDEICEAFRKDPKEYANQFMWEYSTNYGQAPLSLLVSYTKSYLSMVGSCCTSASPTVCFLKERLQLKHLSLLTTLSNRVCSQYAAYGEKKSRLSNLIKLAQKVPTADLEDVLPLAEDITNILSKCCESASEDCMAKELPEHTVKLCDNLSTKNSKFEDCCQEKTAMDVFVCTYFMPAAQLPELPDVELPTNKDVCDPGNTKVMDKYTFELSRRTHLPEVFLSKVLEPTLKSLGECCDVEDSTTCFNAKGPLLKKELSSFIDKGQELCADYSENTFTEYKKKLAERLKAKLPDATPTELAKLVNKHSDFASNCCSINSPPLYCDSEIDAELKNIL
As to the kind of experiment: Competitive binding of […]-phage and vitamin D forms to DBP. The note with it: wells pre-incubated with 3 nM or 30 nM competitor; P<0.05. The procedure: as §1

Test [1] concerns CD11b+F4/80+ TAM from EF43.fgf4 mammary tumors. The test can be described thus: Cytokine gene expression by quantitative real-time PCR in cultured TAM. It is filed as cell-based, mouse. The procedure:
Three sets of total RNA (RNeasy Mini Kit, Qiagen) were independently isolated from cultured macrophages, or fresh macrophages isolated directly from tumors. DNA synthesis was performed with the […] Reverse Transcription System (Promega) by using oligodT for reverse transcription. Gene expression was analyzed with the use of Tagman probes (Applied Biosystems) in a 7500 Fast Real-Time PCR System instrument (Applied Biosystems) and three sets of endogenous control genes: 18S and GAPDH and GUSB1. TAM were obtained directly from EF43.fgf4 tumors. Tissue digestion was performed in collagenase A in serum-free DMEM (1 mg/mL) for 20 minutes at 37° C., followed by filtering through 70 μm nylon cell strainers and centrifugation. Macrophages were enriched by magnetic bead separation of CD11b-positive cells (Miltenyi Biotec) and either used for RNA extraction or cultured in 6-well plates containing DMEM (Gibco) supplemented with 20% FBS (Sigma) and 50 ng/ml of M-CSF (R&D Systems). A homogeneous population of adherent macrophages (namely, >99% CD11b+F480+) was obtained after 7 days in culture.

The test system of test [2] is EF43.fgf4-derived mammary fat pad tumors. As to the kind of experiment: In vivo phage display library selection in EF43.fgf4 tumor-bearing mice. The arrangement: species or system mouse. To be noted: peptide sequences from third round of in vivo selection. The procedure: Combinatorial phage display selections in vivo in tumor-bearing mice were performed as described in the literature. In brief, animals received 10^9 TU iv of an unselected phage display random peptide library (displaying the insert CX7C). Tumors and control organs were collected after 24 hours of systemic circulation. For homing of individual phage clones in vivo, tumor-bearing mice were deeply anesthetized with 1-2% isoflurane and received 10^9 TU of targeted phage or insertless control phage, both administered iv side-by-side. Phage particles were recovered from tissue samples by bacterial infection and processed as described in the literature.
A phage display-based approach was used to identify homing peptides that target TAM in TNBC. […] A random phage peptide library was first administered intravenously (iv) in immunocompetent female BALB/c mice with established EF43.fgf4-derived mammary fat pad tumors. Phage particles were recovered from tumors after 24 hours, re-amplified, and subjected to two additional rounds of in vivo selection. […] The four selected peptides were next individually evaluated based on absence of binding to EF43.fgf4 cells in vitro (FIG. 2B). […] In a non-limiting aspect, the peptides […], (SEQ ID NO:3) […] (SEQ ID NO:4), and […] (SEQ ID NO:2) were not studied further.

In a further test the test system is EF43.fgf4 tumors. The test can be described thus: Systemic treatment of EF43.fgf4 tumor-bearing mice with soluble peptide. The format is in vivo, mouse.
For test [3], the target named is T2, PDIA3 on the surface of tumor associated macrophages (TAM) from EF43.fgf4 mammary tumors (mouse, UniProt P27773 25-505).
T2 sequence (looked up): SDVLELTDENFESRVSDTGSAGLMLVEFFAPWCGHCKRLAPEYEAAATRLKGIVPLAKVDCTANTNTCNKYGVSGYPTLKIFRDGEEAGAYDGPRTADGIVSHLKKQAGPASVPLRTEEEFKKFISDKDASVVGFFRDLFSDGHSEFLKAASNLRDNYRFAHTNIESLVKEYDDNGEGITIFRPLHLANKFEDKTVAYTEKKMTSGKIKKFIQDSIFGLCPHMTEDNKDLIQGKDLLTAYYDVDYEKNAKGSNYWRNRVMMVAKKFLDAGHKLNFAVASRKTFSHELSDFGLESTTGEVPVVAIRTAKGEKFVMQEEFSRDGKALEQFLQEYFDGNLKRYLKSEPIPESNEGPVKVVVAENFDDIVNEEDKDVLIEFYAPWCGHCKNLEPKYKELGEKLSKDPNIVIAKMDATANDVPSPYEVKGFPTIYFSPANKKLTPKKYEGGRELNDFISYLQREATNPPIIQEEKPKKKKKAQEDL
The test can be described thus: cell-based or functional assay.

For test [4], the target named is T3, recombinant human vitamin D-binding protein (DBP) (human, UniProt P02774 17-474, limits assumed).
T3 construct: Bought from Abcam and coated at 1 ug/ml on microtiter wells; also called recombinant human DBP; DBP-GST
T3 sequence (looked up): T1 sequence (P02774 17-474)
As to the kind of experiment: phage binding assay on coated recombinant protein, bound phage counted as TU. On the procedure: The Biopanning and Rapid Analysis of Selective Interactive Ligands (BRASIL) methodology was used to test binding of phage to cultured cells. […] GST and BSA were used as control proteins. Bound phage were recovered by log-phase infection of host bacteria (200 μl E. coli K91Kan).

Bridge positions count the residues as written; N and C are the ends. Ends that are not written are not given here.

Consider “CRGFVVGRC (TAM Targeting Peptide) [TAM targeting peptide selected by in vivo phage display]”, for which the “binding to EF43.fgf4 cells in vitro” value with EF43.fgf4 cells is on record as “bound to EF43.fgf4 cells”.
As for “CQRALMIAC (TAM Targeting Peptide) [TAM targeting peptide selected by in vivo phage display]”, in the test with EF43.fgf4 cells, the “binding to EF43.fgf4 cells in vitro” value was “bound to EF43.fgf4 cells”.
Turning to `C=C1CC[C@H](O)C/C1=C/C=C1\CCC[C@]2(C)[C@@H]([C@H](C)CCCC(C)C)CC[C@@H]12` [vitamin D3, cholecalciferol], on DBP, the “effect on binding of CSSTRESAC-phage to immobilized DBP” value was “not”.
`C=C1/C(=C\C=C2/CCC[C@]3(C)[C@@H]([C@H](C)CCCC(C)(C)O)CC[C@@H]23)C[C@@H](O)C[C@@H]1O` [1,25-(OH)2D3, reference compound]: in test [1] (TAM co-treated with CSSTRESAC peptide and 1,25-(OH)2D3), the “effect of co-treatment on the CSSTRESAC-induced cytokine response” value is “abrogated”.
Take “CSSTRESAC (disulfide 1-9) [TAM targeting peptide from CX7C phage library; modeled with disulfide bridge between Cys1 and Cys9]”: the “binding to EF43.fgf4 cells in vitro” value in the test with EF43.fgf4 cells is reported as “did not”. Moreover, the “gene expression of IL-4 and IL-13” value in test [1] was “undetectable”. Further, in test [1] (relative to control cells), the “gene expression of IL-18, IL-12, and INFβ” value is “modest increases or were detected only at background levels”; the “gene expression of anti-inflammatory cytokines TGF-β1, TGF-β2, IL-10, and arginase-1” value is listed as “much lower increases”. Besides, in test [2], the “enrichment relative to each of the other three selected peptides” value is reported as 16 fold. For the same molecule, the tumor growth entry in the test with EF43.fgf4 tumors (iv, vs unrelated control peptide or vehicle, from one week post initiation, P<0.001) is given as “significant delay in tumor growth”. In addition, the “macrophage population in tumor sections (immunohistochemistry, CD163)” value with EF43.fgf4 tumors (vs control peptide) was “reduction of the macrophage population”. In addition, the “number of CD11b+IL10highIL12low PDIA3-expressing TAM in tumors (FACS)” value with EF43.fgf4 tumors (vs negative control groups) is listed as “reduction in the number”.
Regarding “CRYSAARSC (TAM Targeting Peptide) [TAM targeting peptide selected by in vivo phage display]”, the “binding to EF43.fgf4 cells in vitro” value in the test with EF43.fgf4 cells is on record as “bound to EF43.fgf4 cells”.

B1: synthetic CSSTRESAC peptide (SEQ ID NO:1) (peptide)
peptide: CSSTRESAC
modifications: not fully specified; cysteine pairing not given here
For the molecule B1, in test [3], the “gene expression of iNOS2 in cultured CD11b+F4/80+ TAM (real-time quantitative PCR)” value is around 20 fold; the “gene expression of the cytokine IL-23 in cultured CD11b+F4/80+ TAM (real-time quantitative PCR)” value is around 10 fold; the “gene expression of the pro-inflammatory cytokines IL-1β, TNF-α, and IL-6 in cultured CD11b+F4/80+ TAM (real-time quantitative PCR)” value is around 40 fold.

B2: CSSTRESAC-phage (peptide)
peptide: CSSTRESAC
modifications: cysteine pairing not given here; also: displayed on bacteriophage particle
notes: The control was insertless phage; not shown: The phage coat protein and the rest of the phage particle that carry the CX7C insert
For the molecule B2, the binding result in test [4] was “binds”.
